Reference: patent publication US9427468B2, “Compositions and methods for diagnosing and treating community-acquired methicillin-resistant Staphylococcus aureus” (priority 2007, dated 2016)
Marks after values point to notes of the source that are not given here.

Legend:
Format in all cases: cell-based, Staphylococcus aureus
MW2 (USA400) CA-MRSA = test: Minimum bactericidal concentration (MBC); conditions: for combination: MBC of oxacillin with ¼ MIC cefoxitin
Method: (§1) Minimum inhibitory concentrations and minimum bactericidal concentrations (MIC and MBC, respectively) were determined for each isolate in triplicate by microdilution techniques with an inoculum of 5×10^5 CFU/ml according to the Clinical and Laboratory Standards Institute guidelines. Aliquots (5 μl) from clear wells were plated onto TSA drug-free plates for the determination of MBCs, followed by incubation at 37° C. for 24 and 48 hours. For the mutant strains, each one of the three clones was tested. MIC data were reported as median values from at least three independent experiments for each antibiotic. Also, strains containing pEPSA5-based plasmids were tested with and without xylose induction, but chloramphenicol was not added to avoid interference with beta-lactam resistance evaluation. […] The correct inocula were confirmed by plating serial dilutions on agar.

USA300 CA-MRSA = test: Minimum bactericidal concentration (MBC); conditions: for combination: MBC of oxacillin with ¼ MIC cefoxitin
Method: as §1

[1] = system: CA-MRSA Strains (30 clinical isolates); test: MIC and synergy assay, clinical isolates
Source text: (§2) Analysis of the Type IV SCCmec element, virtually identical between MW2 and USA300, allowed for identification of four genes conserved in the CA-MRSA background, but not in other known MRSA genomes. These four genes therefore served as biomarkers that could be used to distinguish CA-MRSA strains from HA-MRSA strains. PCR of chromosomal DNAs with oligonucleotides specific for mecA, pvl (Lina, G. et al. 1999. Clin. Infect. Dis. 29:1128-1132) and the four specific genes for CA-MRSAs (MW0042/USA300_0041; MW0043/USA300_0042; MW0046/USA300_0045; and MW0047/USA300_0046) identified 30 isolates positive for these genes. […] The code was subsequently broken, confirming that all 30 isolates, designated as CA-MRSA, were from patients with primary skin infections and annotated by the donating hospital as CA-MRSA while the other were blood isolates designated as HA-MRSA. […] The synergistic inhibitory activity of the combined treatment also was further tested on 30 MRSA isolates from complicated skin and soft tissue infections, with CA-MRSA being the most common etiologic agent.
(§3) Two independent batches of clinical isolates were obtained from the Dartmouth Hitchcock Medical Center, Lebanon, N.H. The first group included 200 blood MRSA isolates sub-cultured on 5% Columbia sheep blood agar (Remel). The second group involved 30 MRSA isolates from complicated skin and soft tissue infections (CSSTI) similarly sub-cultured. All strains were grown overnight in CSMHB broth and streaked on selective mannitol salt agar plates for confirmation. DNA extraction was performed on 500 μl of cultures. PCR was performed on all DNAs with oligonucleotides specific for mecA, pvl and the four genes found to be specific for the SCCmec type IV in CA-MRSA: MW0042, MW0043, MW0046, and MW0047. DNA amplification of mecA was used as a control to confirm that all strains were MRSA. DNAs from S. epidermidis, E. coli and S. pneumoniae were used as negative controls to confirm the specificity of the oligonucleotides. After amplification for 30 cycles (5 min of denaturation at 95° C., 30 s of annealing at 54° C. and 1 min extension at 72° C.), PCR products were resolved by electrophoresis through 1.5% agarose gels stained with ethidium bromide. Given the number of clinical isolates tested, only a small random group of PCR products were subjected to DNA sequencing to confirm specificity. S. aureus strain COL, Mu50, N315 and MRSA252 all tested negative for all MW0042, MW0043 and MW0047 and pvl while USA300 and MW2 were positive controls for this PCR reaction. The primer sequences for mecA, MW0042, MW0043 and MW0047 were as follows: mecA-UP 5′-GGTACTGCTATCCACCCTCAAA-3′ (SEQ ID NO:19), mecA-LOW 5′-TTACGACTTGTTGCATACCATCA-3′ (SEQ ID NO:20), MW0042-UP 5′-ATTGGCAGAAATAAACAAAACG-3′ (SEQ ID NO:21), MW0042-LOW 5′-TCGTTTAATTTTTTCCCAAACTC-3′ (SEQ ID NO:22), MW0043-UP 5′-GTTTCAGTTGGTGTTGAAGATCC-3′ (SEQ ID NO:23), MW0043-LOW 5′-CCTATAATTTTCGATAGATTCGTG-3′ (SEQ ID NO:24), MW0047-UP 5′-AGGCATATAAAGAAGCAGGAAAG-3′ (SEQ ID NO:25), MW0047-LOW 5′-CACACTGTTTTCCTACGATATTTG-3′ (SEQ ID NO:26).
as §1, with “agar. […]” for “agar.”

[2] = system: CA-MRSA from CSSTI (30 isolates); test: MIC and synergy assay, clinical isolates
Source text: as §2, §3
as §1, with “agar. […]” for “agar.”

[3] = system: HA-MRSA Strains (30 clinical isolates); test: MIC and synergy assay, clinical isolates
Source text: as §2, §3
as §1, with “agar. […]” for “agar.”

[4] = Staphylococcus aureus, MRSA, 48 h, read-out: MICs 48 hr

Row | Compound | MBC 48 hr (MW2 (USA400) CA-MRSA) [µg/mL] | MBC 48 hr (USA300 CA-MRSA) [µg/mL] | MICs 48 hr ([1]; 30 CA-MRSA clinical isolates, median values, 48 hr) | MICs 48 hr ([2]; 30 CSSTI isolates, median values, 48 hr) | MICs 48 hr ([3]; 30 HA-MRSA clinical isolates, median values, 48 hr) | MIC [1, 4] [µg/mL] | MIC [2, 4] [µg/mL] | MIC [3, 4] [µg/mL]
1 | Cc1onc(-c2ccccc2)c1C(=O)N[C@@H]1C(=O)N2[C@@H]1SC(C)(C)[C@@H]2C(=O)O [OX, oxacillin] | 256 | 256 | 64^b μg/ml | 64^b μg/ml | 256^b μg/ml |  |  | 
2 | CO[C@@]1(NC(=O)Cc2cccs2)C(=O)N2C(C(=O)O)=C(COC(N)=O)CS[C@@H]21 [CX, cefoxitin] | > 256 | > 256 |  |  |  | 64 | 64 | 128
